Experimental data as given in patent US20220281848A1, “PYRAZOLE-SUBSTITUTED PYRROLIDINONES AS HERBICIDES” (FMC Corporation, priority 2019, published 2022).

Tested on: plants
Assay: Test D pre-emergence, other plants of Tables D1 and D3
Type: in vivo
Settings: preemergent, 20 DAA
Procedure, shortened: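 Seeds treated with herbicide safener; sown in soil; glasshouse, 16 h light, 65% humidity. Sprayed day 1 (pre) or ~day 12 (post). Spray in 0.2% v/v adjuvant. Scored 0–100 damage: 20 DAA pre, 15 d post.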

Question: `CCn1nc([C@H]2CN(C)C(=O)[C@@H]2C(=O)Nc2cccc(F)c2F)c2c(F)cccc21` [Compound 7] was tested. Which “damage to plant (100=total damage to plant; 0=no damage to plant), ABUTH” value (rate 15) did it give?
Answer: 0

Question: What about the “damage to plant (100=total damage to plant; 0=no damage to plant), ABUTH” value (rate 30) of the same molecule?
Answer: 0

Question: What about the “damage to plant (100=total damage to plant; 0=no damage to plant), ABUTH” value (rate 60) of the same molecule?
Answer: 0

Question: What about the “damage to plant (100=total damage to plant; 0=no damage to plant), ABUTH” value (rate 130) of the same molecule?
Answer: 0

Question: And the “damage to plant (100=total damage to plant; 0=no damage to plant), ABUTH” value (rate 250)?
Answer: 0

Question: What about the “damage to plant (100=total damage to plant; 0=no damage to plant), ABUTH” value (rate 500) of the same molecule?
Answer: 10

Question: What about the “damage to plant (100=total damage to plant; 0=no damage to plant), AMARE” value (rate 15) of the same molecule?
Answer: 0

Question: What about the “damage to plant (100=total damage to plant; 0=no damage to plant), AMARE” value (rate 30) of the same molecule?
Answer: 0

Question: What about the “damage to plant (100=total damage to plant; 0=no damage to plant), AMARE” value (rate 60) of the same molecule?
Answer: 0

Question: And the “damage to plant (100=total damage to plant; 0=no damage to plant), AMARE” value (rate 130)?
Answer: 0

Question: What about the “damage to plant (100=total damage to plant; 0=no damage to plant), AMARE” value (rate 250) of the same molecule?
Answer: 0

Question: And the “damage to plant (100=total damage to plant; 0=no damage to plant), AMARE” value (rate 500)?
Answer: 0

Question: What about the “damage to plant (100=total damage to plant; 0=no damage to plant), BIDPI” value (rate 15) of the same molecule?
Answer: 0

Question: And the “damage to plant (100=total damage to plant; 0=no damage to plant), BIDPI” value (rate 30)?
Answer: 0

Question: And the “damage to plant (100=total damage to plant; 0=no damage to plant), BIDPI” value (rate 60)?
Answer: 0

Question: What about the “damage to plant (100=total damage to plant; 0=no damage to plant), BIDPI” value (rate 130) of the same molecule?
Answer: 0

Question: What about the “damage to plant (100=total damage to plant; 0=no damage to plant), BIDPI” value (rate 250) of the same molecule?
Answer: 0

Question: What about the “damage to plant (100=total damage to plant; 0=no damage to plant), BIDPI” value (rate 500) of the same molecule?
Answer: 0

Question: And the “damage to plant (100=total damage to plant; 0=no damage to plant), BRAPL” value (rate 15)?
Answer: 0

Question: What about the “damage to plant (100=total damage to plant; 0=no damage to plant), BRAPL” value (rate 30) of the same molecule?
Answer: 60

Question: What about the “damage to plant (100=total damage to plant; 0=no damage to plant), BRAPL” value (rate 60) of the same molecule?
Answer: 80

Question: What about the “damage to plant (100=total damage to plant; 0=no damage to plant), BRAPL” value (rate 130) of the same molecule?
Answer: 80

Question: What about the “damage to plant (100=total damage to plant; 0=no damage to plant), BRAPL” value (rate 250) of the same molecule?
Answer: 90

Question: And the “damage to plant (100=total damage to plant; 0=no damage to plant), BRAPL” value (rate 500)?
Answer: 100

Question: And the “damage to plant (100=total damage to plant; 0=no damage to plant), CYPES” value (rate 15)?
Answer: 0

Question: And the “damage to plant (100=total damage to plant; 0=no damage to plant), CYPES” value (rate 30)?
Answer: 0

Question: And the “damage to plant (100=total damage to plant; 0=no damage to plant), CYPES” value (rate 60)?
Answer: 0

Question: And the “damage to plant (100=total damage to plant; 0=no damage to plant), CYPES” value (rate 130)?
Answer: 0

Question: What about the “damage to plant (100=total damage to plant; 0=no damage to plant), CYPES” value (rate 250) of the same molecule?
Answer: 0

Question: And the “damage to plant (100=total damage to plant; 0=no damage to plant), CYPES” value (rate 500)?
Answer: 20

Question: What about the “damage to plant (100=total damage to plant; 0=no damage to plant), DIGSA” value (rate 15) of the same molecule?
Answer: 0

Question: And the “damage to plant (100=total damage to plant; 0=no damage to plant), DIGSA” value (rate 30)?
Answer: 80

Question: And the “damage to plant (100=total damage to plant; 0=no damage to plant), DIGSA” value (rate 60)?
Answer: 90

Question: What about the “damage to plant (100=total damage to plant; 0=no damage to plant), DIGSA” value (rate 130) of the same molecule?
Answer: 100

Question: What about the “damage to plant (100=total damage to plant; 0=no damage to plant), DIGSA” value (rate 250) of the same molecule?
Answer: 100

Question: And the “damage to plant (100=total damage to plant; 0=no damage to plant), DIGSA” value (rate 500)?
Answer: 100

Question: What about the “damage to plant (100=total damage to plant; 0=no damage to plant), ECHCG” value (rate 15) of the same molecule?
Answer: 0

Question: And the “damage to plant (100=total damage to plant; 0=no damage to plant), ECHCG” value (rate 30)?
Answer: 90

Question: And the “damage to plant (100=total damage to plant; 0=no damage to plant), ECHCG” value (rate 60)?
Answer: 90

Question: And the “damage to plant (100=total damage to plant; 0=no damage to plant), ECHCG” value (rate 130)?
Answer: 100

Question: What about the “damage to plant (100=total damage to plant; 0=no damage to plant), ECHCG” value (rate 250) of the same molecule?
Answer: 100

Question: And the “damage to plant (100=total damage to plant; 0=no damage to plant), ECHCG” value (rate 500)?
Answer: 100

Question: What about the “damage to plant (100=total damage to plant; 0=no damage to plant), ELEIN” value (rate 15) of the same molecule?
Answer: 0

Question: And the “damage to plant (100=total damage to plant; 0=no damage to plant), ELEIN” value (rate 30)?
Answer: 0

Question: What about the “damage to plant (100=total damage to plant; 0=no damage to plant), ELEIN” value (rate 60) of the same molecule?
Answer: 10

Question: And the “damage to plant (100=total damage to plant; 0=no damage to plant), ELEIN” value (rate 130)?
Answer: 60

Question: And the “damage to plant (100=total damage to plant; 0=no damage to plant), ELEIN” value (rate 250)?
Answer: 50

Question: And the “damage to plant (100=total damage to plant; 0=no damage to plant), ELEIN” value (rate 500)?
Answer: 70

Question: What about the “damage to plant (100=total damage to plant; 0=no damage to plant), EPHHL” value (rate 15) of the same molecule?
Answer: 0

Question: What about the “damage to plant (100=total damage to plant; 0=no damage to plant), EPHHL” value (rate 30) of the same molecule?
Answer: 0

Question: And the “damage to plant (100=total damage to plant; 0=no damage to plant), EPHHL” value (rate 60)?
Answer: 0

Question: What about the “damage to plant (100=total damage to plant; 0=no damage to plant), EPHHL” value (rate 250) of the same molecule?
Answer: 10

Question: What about the “damage to plant (100=total damage to plant; 0=no damage to plant), EPHHL” value (rate 500) of the same molecule?
Answer: 40

Question: And the “damage to plant (100=total damage to plant; 0=no damage to plant), GLXMA” value (rate 15)?
Answer: 0

Question: What about the “damage to plant (100=total damage to plant; 0=no damage to plant), GLXMA” value (rate 30) of the same molecule?
Answer: 0

Question: What about the “damage to plant (100=total damage to plant; 0=no damage to plant), GLXMA” value (rate 60) of the same molecule?
Answer: 0

Question: And the “damage to plant (100=total damage to plant; 0=no damage to plant), GLXMA” value (rate 130)?
Answer: 0

Question: What about the “damage to plant (100=total damage to plant; 0=no damage to plant), GLXMA” value (rate 250) of the same molecule?
Answer: 0

Question: What about the “damage to plant (100=total damage to plant; 0=no damage to plant), GLXMA” value (rate 500) of the same molecule?
Answer: 0

Question: What about the “damage to plant (100=total damage to plant; 0=no damage to plant), IPOHE” value (rate 15) of the same molecule?
Answer: 0

Question: What about the “damage to plant (100=total damage to plant; 0=no damage to plant), IPOHE” value (rate 30) of the same molecule?
Answer: 0

Question: What about the “damage to plant (100=total damage to plant; 0=no damage to plant), IPOHE” value (rate 60) of the same molecule?
Answer: 0

Question: What about the “damage to plant (100=total damage to plant; 0=no damage to plant), IPOHE” value (rate 130) of the same molecule?
Answer: 0

Question: What about the “damage to plant (100=total damage to plant; 0=no damage to plant), IPOHE” value (rate 250) of the same molecule?
Answer: 0

Question: What about the “damage to plant (100=total damage to plant; 0=no damage to plant), IPOHE” value (rate 500) of the same molecule?
Answer: 0

Question: What about the “damage to plant (100=total damage to plant; 0=no damage to plant), ORYSA” value (rate 15) of the same molecule?
Answer: 0

Question: What about the “damage to plant (100=total damage to plant; 0=no damage to plant), ORYSA” value (rate 30) of the same molecule?
Answer: 0

Question: And the “damage to plant (100=total damage to plant; 0=no damage to plant), ORYSA” value (rate 60)?
Answer: 0

Question: And the “damage to plant (100=total damage to plant; 0=no damage to plant), ORYSA” value (rate 130)?
Answer: 0

Question: What about the “damage to plant (100=total damage to plant; 0=no damage to plant), ORYSA” value (rate 250) of the same molecule?
Answer: 0

Question: And the “damage to plant (100=total damage to plant; 0=no damage to plant), ORYSA” value (rate 500)?
Answer: 0

Question: What about the “damage to plant (100=total damage to plant; 0=no damage to plant), PANMI” value (rate 15) of the same molecule?
Answer: 0

Question: And the “damage to plant (100=total damage to plant; 0=no damage to plant), PANMI” value (rate 30)?
Answer: 0

Question: What about the “damage to plant (100=total damage to plant; 0=no damage to plant), PANMI” value (rate 60) of the same molecule?
Answer: 0

Question: What about the “damage to plant (100=total damage to plant; 0=no damage to plant), PANMI” value (rate 130) of the same molecule?
Answer: 0

Question: What about the “damage to plant (100=total damage to plant; 0=no damage to plant), PANMI” value (rate 250) of the same molecule?
Answer: 0

Question: What about the “damage to plant (100=total damage to plant; 0=no damage to plant), PANMI” value (rate 500) of the same molecule?
Answer: 20

Question: And the “damage to plant (100=total damage to plant; 0=no damage to plant), SETFA” value (rate 15)?
Answer: 0

Question: And the “damage to plant (100=total damage to plant; 0=no damage to plant), SETFA” value (rate 30)?
Answer: 80

Question: What about the “damage to plant (100=total damage to plant; 0=no damage to plant), SETFA” value (rate 60) of the same molecule?
Answer: 80

Question: What about the “damage to plant (100=total damage to plant; 0=no damage to plant), SETFA” value (rate 130) of the same molecule?
Answer: 90

Question: And the “damage to plant (100=total damage to plant; 0=no damage to plant), SETFA” value (rate 250)?
Answer: 90

Question: What about the “damage to plant (100=total damage to plant; 0=no damage to plant), SETFA” value (rate 500) of the same molecule?
Answer: 100

Question: And the “damage to plant (100=total damage to plant; 0=no damage to plant), SIDSP” value (rate 15)?
Answer: 0

Question: And the “damage to plant (100=total damage to plant; 0=no damage to plant), SIDSP” value (rate 30)?
Answer: 0

Question: And the “damage to plant (100=total damage to plant; 0=no damage to plant), SIDSP” value (rate 60)?
Answer: 0

Question: What about the “damage to plant (100=total damage to plant; 0=no damage to plant), SIDSP” value (rate 130) of the same molecule?
Answer: 0

Question: What about the “damage to plant (100=total damage to plant; 0=no damage to plant), SIDSP” value (rate 250) of the same molecule?
Answer: 0

Question: What about the “damage to plant (100=total damage to plant; 0=no damage to plant), SIDSP” value (rate 500) of the same molecule?
Answer: 10

Question: What about the “damage to plant (100=total damage to plant; 0=no damage to plant), SORVU” value (rate 15) of the same molecule?
Answer: 0

Question: What about the “damage to plant (100=total damage to plant; 0=no damage to plant), SORVU” value (rate 30) of the same molecule?
Answer: 0

Question: And the “damage to plant (100=total damage to plant; 0=no damage to plant), SORVU” value (rate 60)?
Answer: 0
